Laboratory results: patent US12193444B2, “Insecticidal composition and use thereof” (ADAMA MAKHTESHIM LTD., priority 2018, dated 2025)
Counter-ions that a name gives are not always drawn.

Experiments:
[1] = Accelerated storage stability: degradation of active ingredients after 14 days at 54° C.; format: physicochemical
Description: In some embodiments, the percentage of degradation is calculated based on the percentage of cartap and/or emamectin by weight based on the total weight of the stable composition before and after storage. […]
In addition, two different levels of water content were measured, content (a) less than 0.2% and b) from more than 0.3% to less than 0.5%.
In example 1, the concentrations of the cartap and emamectin were measured after 14 days storage at 54° C.
For GR composition, it was observed that the failed batches are associated with the bulging of the pouch under accelerated storage. For study of accelerated storage at 54° C. for 14 days, the sample is kept in a sealed tri-laminated aluminum pouch and after storage, the visual observations are done to observe the pouch bulging, if any. Comparative rating was done, where more number of stars denotes more bulging. From table 5, it is clear that, for the storage stability samples of pH 5.1, 4.7, 4.1 and 3.5 (for both the processes) samples with water content of less or equal to 0.2% water content by weight based on the total weight of the stable composition, have not shown any bulging.

[2] = cited from earlier work
[3] = pH (1% Aq.) 3.5, water content <0.2 % w/w
[4] = pH (1% Aq.) 3.5, water content >0.3 to <0.5 % w/w
[5] = pH (1% Aq.) 4.1, water content <0.2 % w/w
[6] = pH (1% Aq.) 4.1, water content >0.3 to <0.5 % w/w
[7] = pH (1% Aq.) 4.7, water content <0.2 % w/w
[8] = pH (1% Aq.) 4.7, water content >0.3 to <0.5 % w/w
[9] = pH (1% Aq.) 5.1, water content <0.2 % w/w
[10] = pH (1% Aq.) 5.1, water content >0.3 to <0.5 % w/w
[11] = pH (1% Aq.) 5.5, water content <0.2 % w/w
[12] = pH (1% Aq.) 5.5, water content >0.3 to <0.5 % w/w
[13] = pH (1% Aq.) 5.8, water content <0.2 % w/w
[14] = pH (1% Aq.) 5.8, water content >0.3 to <0.5 % w/w

In the case of “(4″R)-5-O-demethyl-4″-deoxy-4″-(methylamino)avermectin [Emamectin]”, the “% Emamectin degradation (14 Days Storage, 54° C.) Process 1” value [1, 3] is reported as 1.9%, the “% Emamectin degradation (14 Days Storage, 54° C.) Process 2” value [1, 3] is reported as 4.49% and the “% Emamectin degradation (14 Days Storage, 54° C.) Process 1” value [1, 4] is reported as 13%. For the same molecule, the “% Emamectin degradation (14 Days Storage, 54° C.) Process 2” value [1, 4] was 13.97%, the “% Emamectin degradation (14 Days Storage, 54° C.) Process 1” value [1, 5] was 0.95% and the “% Emamectin degradation (14 Days Storage, 54° C.) Process 2” value [1, 5] was 2.3%. The “% Emamectin degradation (14 Days Storage, 54° C.) Process 1” value [1, 6] was 14.45%, the “% Emamectin degradation (14 Days Storage, 54° C.) Process 2” value [1, 6] was 5.02% and the “% Emamectin degradation (14 Days Storage, 54° C.) Process 1” value [1, 7] was 6.14%. For the same molecule, the “% Emamectin degradation (14 Days Storage, 54° C.) Process 2” value [1, 7] was 2.38%, the “% Emamectin degradation (14 Days Storage, 54° C.) Process 1” value [1, 8] was 17.1% and the “% Emamectin degradation (14 Days Storage, 54° C.) Process 2” value [1, 8] was 7.31%. For the same molecule, the “% Emamectin degradation (14 Days Storage, 54° C.) Process 1” value [1, 9] was 7.98%, the “% Emamectin degradation (14 Days Storage, 54° C.) Process 2” value [1, 9] was 4.49% and the “% Emamectin degradation (14 Days Storage, 54° C.) Process 1” value [1, 10] was 12.12%. For the same molecule, the “% Emamectin degradation (14 Days Storage, 54° C.) Process 2” value [1, 10] was 27.2%, the “% Emamectin degradation (14 Days Storage, 54° C.) Process 1” value [1, 11] was 8.33% and the “% Emamectin degradation (14 Days Storage, 54° C.) Process 2” value [1, 11] was 6.89%. For the same molecule, the “% Emamectin degradation (14 Days Storage, 54° C.) Process 1” value [1, 12] was 40.96%, the “% Emamectin degradation (14 Days Storage, 54° C.) Process 2” value [1, 12] was 24.63% and the “% Emamectin degradation (14 Days Storage, 54° C.) Process 1” value [1, 13] was 16.7%. The “% Emamectin degradation (14 Days Storage, 54° C.) Process 2” value [1, 13] was 20.2%, the “% Emamectin degradation (14 Days Storage, 54° C.) Process 1” value [1, 14] was 70.74% and the “% Emamectin degradation (14 Days Storage, 54° C.) Process 2” value [1, 14] was 26.59%. The decomposition of emamectin ([2]; highly unstable, decomposes rapidly) was “about 25%” and the stability to hydrolysis ([2]; pH 5, 6, 7 and 8 (25° C.)) was “stable to hydrolysis”.
For `CN(C)C(CSC(N)=O)CSC(N)=O` [Cartap Hydrochloride, S,S′-(2-dimethylaminotrimethylene) bis(thiocarbamate)], the “% Cartap Hydrochloride degradation (14 days storage, 54° C.) Process 1” value [1, 3] was 0%, the “% Cartap Hydrochloride degradation (14 days storage, 54° C.) Process 2” value [1, 3] was 2.27% and the “% Cartap Hydrochloride degradation (14 days storage, 54° C.) Process 1” value [1, 4] was 0%. The “% Cartap Hydrochloride degradation (14 days storage, 54° C.) Process 2” value [1, 4] was 2.80%, the “% Cartap Hydrochloride degradation (14 days storage, 54° C.) Process 2” value [1, 5] was 0.23% and the “% Cartap Hydrochloride degradation (14 days storage, 54° C.) Process 2” value [1, 6] was 2.80%. For the same molecule, the “% Cartap Hydrochloride degradation (14 days storage, 54° C.) Process 1” value [1, 7] was 2.46%, the “% Cartap Hydrochloride degradation (14 days storage, 54° C.) Process 1” value [1, 8] was 3.63% and the “% Cartap Hydrochloride degradation (14 days storage, 54° C.) Process 1” value [1, 9] was 2.40%. The “% Cartap Hydrochloride degradation (14 days storage, 54° C.) Process 2” value [1, 9] was 1.67%, the “% Cartap Hydrochloride degradation (14 days storage, 54° C.) Process 1” value [1, 10] was 4.05% and the “% Cartap Hydrochloride degradation (14 days storage, 54° C.) Process 2” value [1, 10] was 1.22%. The “% Cartap Hydrochloride degradation (14 days storage, 54° C.) Process 1” value [1, 11] was 0.00%, the “% Cartap Hydrochloride degradation (14 days storage, 54° C.) Process 1” value [1, 12] was 3.30% and the “% Cartap Hydrochloride degradation (14 days storage, 54° C.) Process 1” value [1, 13] was 3.16%. For the same molecule, the “% Cartap Hydrochloride degradation (14 days storage, 54° C.) Process 2” value [1, 13] was 1.09%, the “% Cartap Hydrochloride degradation (14 days storage, 54° C.) Process 1” value [1, 14] was 4.94% and the “% Cartap Hydrochloride degradation (14 days storage, 54° C.) Process 2” value [1, 14] was 6.48%.
